Target: T1, CqsR-LBD (Vibrio cholerae, UniProt Q9KR16)
T1 construct: gene VC_1831; pET28B His6 tag kept; E. coli BL21(DE3)
Experiment: differential scanning fluorimetry (SYPRO Orange)
Assay type: binding
Settings: 10 mM ligand; 10 μM protein; PBS pH 7.5, 10% glycerol; Tm without ligand 46 °C
Description: differential scanning fluorimetry (SYPRO Orange) on CqsR-LBD

SMILES	Tm (°C)^b
C[C@H](N)CO [L-alaninol, (S)-(+)-2-Amino-1-propanol]	60 °C
NC(CO)CO [Serinol, 2-Amino-1,3-propanediol]	53.67 [0.58]

From paper PMC7046293, “Parallel quorum-sensing system in Vibrio cholerae prevents signal interference inside the host” (PLoS Pathogens, 2020)
